Results published in patent US12338216B2, “Solvates of abscisic acid and liquid compositions containing abscisic acid” (Clariant International Ltd., priority 2019, dated 2025).

Assays:
[1] = tested on: enzymatically isolated cuticles of pear tree leaves; assay: Penetration of abscisic acid through enzymatically isolated cuticles of pear tree leaves (HPLC); assay type: in vitro ADME; conditions: active ingredient 0.1 g/L in spray liquid, tap water, n = 8-10
Method: In this test, the penetration of abscisic acid through enzymatically isolated cuticles of pear tree leaves was measured. The principle of the method has been published and described in detail e.g. in WO-A-2005/194844 or WO2017211572 A1.
To determine the penetration, 10 μl a spray liquor of the composition mentioned in the examples were applied to the outer side of a cuticle. In the spray liquors tap water was used in each case.
After application of the spray liquors was allowed to evaporate in each case the water, then in each case the chambers were inverted and placed in thermostated troughs, with air being blown at a defined temperature and humidity to the outside of the cuticle. The incipient penetration therefore took place at a relative humidity of 56% and a set temperature at 10° C. and 25° C. The penetration of active ingredients was determined by High Performance Liquid Chromatography (HPLC).

[2] = room temperature; cited from earlier work
[3] = tested on: poinsettia plants, e.g. the Merlot variety; assay: Phytotoxicity / plant compatibility on indicator plants; assay type: in vivo; conditions: 1 g/L; within one day
Source text: The plant compatibility of the abscisic acid was checked using indicator plants such as poinsettia plants, e.g. the Merlot variety. If no necrosis or other phytotoxicity symptoms such as leaf curl-up or deformation in any case were observed the substance is considered plant compatible and not phytotoxic.

CC1=CC(=O)CC(C)(C)[C@@]1(O)/C=C/C(C)=C\C(=O)O [abscisic acid, (2Z,4E)-5-[(1S)-1-hydroxy-2,6,6-trimethyl-4-oxocyclohex-2-en-1-yl]-3-methylpenta-2,4-dienoic acid]
Mean penetration for abscisic acid after time ([1]; 10° C./56% rH, 1 day): 5.3%
Mean penetration for abscisic acid after time ([1]; 10° C./56% rH, 2 day): 8.2%
Mean penetration for abscisic acid after time ([1]; 25° C./56% rH, 1 day): 1.4%
Mean penetration for abscisic acid after time ([1]; 25° C./56% rH, 2 day): 2.2%
Highest concentration that can be achieved in water [2]: about 3000 ppm

ethoxylated lauryl alcohol
Phytotoxicity symptoms [3]: strong distinct necrosis
